Molecules are shown by their SMILES.

The target of this test is T1, human TGR5 (Homo sapiens, UniProt Q8TDU6).
T1 construct: expressed in transfected cells; host or cells: HEK293
T1 sequence (Q8TDU6 1-330): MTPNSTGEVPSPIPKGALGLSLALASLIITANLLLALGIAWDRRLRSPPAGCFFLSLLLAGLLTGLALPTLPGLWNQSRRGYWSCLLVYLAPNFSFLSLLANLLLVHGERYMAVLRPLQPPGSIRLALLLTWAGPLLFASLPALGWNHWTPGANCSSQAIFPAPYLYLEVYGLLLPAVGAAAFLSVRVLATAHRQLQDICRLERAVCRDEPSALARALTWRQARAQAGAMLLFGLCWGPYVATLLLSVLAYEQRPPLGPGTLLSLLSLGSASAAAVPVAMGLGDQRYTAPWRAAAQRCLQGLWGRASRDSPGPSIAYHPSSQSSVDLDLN
As to the kind of experiment: Cell-based TGR5 assay (cAMP generation, HTRF). To be noted: HEK293 cells stably transfected with human TGR5; cAMP by HTRF; 30 minutes at 37° C.; read-out: pEC50 Human TGR5 (converted). In outline: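 First, compounds in 3-fold serial dilution were placed in HBSS with 10 mM HEPES pH 7.4 and 0.5 mM IBMX. Next, human TGR5-expressing HEK293 cells were added and incubated 30 min at 37° C. Finally, cAMP was detected by HTRF and pEC50 derived by logistic fitting.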
For orientation: TR-FRET usually uses a lanthanide donor and a delayed reading to cut background.
In the case of `O=C(NCCOCCSc1ccc(Cl)c(COC2(c3cnccc3-c3ccccc3OC3COC3)CC2)c1)NC[C@H](O)[C@@H](O)[C@H](O)[C@H](O)CO` [Compound I-493, 1-(2-(2-(4-Chloro-3-((1-(4-(2-(oxetan-3-yloxy)phenyl)pyridin-3-yl)cyclopropoxy)methyl)phenylthio)ethoxy)ethyl)-3-((2S,3R,4R,5R)-2,3,4,5,6-pentahydroxyhexyl)urea], the EC50 was less than 100 nM.

`O=C(NCCCCCSc1ccc(Cl)c(CNC2(c3cnccc3-c3ccccc3OC3CC3)CC2)c1)NC[C@H](O)[C@@H](O)[C@H](O)[C@H](O)CO` [Compound I-494, 1-[5-([4-Chloro-3-[([1-[4-(2-cyclopropoxyphenyl)pyridin-3-yl]cyclopropyl]amino)methyl]phenyl]sulfanyl)pentyl]-3-[(2S,3R,4R,5R)-2,3,4,5,6-pentahydroxyhexyl]urea]: the EC50 is less than 100 nM.

`Cc1ccc(SCCCCC(=O)N(C)C[C@H](O)[C@@H](O)[C@H](O)[C@H](O)CO)nc1CNC1(c2cnccc2-c2ccccc2OC2CC2)CC1` [Compound I-495, 5-([6-[([1-[4-(2-Cyclopropoxyphenyl)pyridin-3-yl]cyclopropyl]amino)methyl]-5-methylpyridin-2-yl]sulfanyl)-N-methyl-N-[(2S,3R,4R,5R)-2,3,4,5,6-pentahydroxyhexyl]pentanamide]: the EC50 is 126 to 1000 nM.

With `CSc1ncc(C)c(CNC2(c3cnccc3-c3ccccc3OC3CC3)CC2)n1` [Compound I-496, 1-[4-(2-Cyclopropoxyphenyl)pyridin-3-yl]-N-[[5-methyl-2-(methylsulfanyl)pyrimidin-4-yl]methyl]cyclopropan-1-amine], the EC50 was less than 100 nM.

For the compound `CCc1ccc(SCCCC(=O)NC[C@H](O)[C@@H](O)[C@H](O)[C@H](O)CO)cc1COC1(c2cnccc2-c2ccccc2OC2CC2)CC1` [Compound I-497, 4-[[3-([l-[4-(2-Cyclopropoxyphenyl)pyridin-3-yl]cyclopropoxy]methyl)-4-ethylphenyl]sulfanyl]-N-[(2S,3R,4R,5R)-2,3,4,5,6-pentahydroxyhexyl]butanamide], the EC50 is 126 to 1000 nM.

Regarding `O=C(CCCSc1ccc(Cl)c(COC2(c3cnccc3-c3ccccc3OC3CC3)CC2)c1)NC[C@H](O)[C@@H](O)[C@H](O)[C@H](O)CO` [Compound I-498, 4-[[4-Chloro-3-([1-[4-(2-cyclopropoxyphenyl)pyridin-3-yl]cyclopropoxy]methyl)phenyl]sulfanyl]-N-[(2S,3R,4R,5R)-2,3,4,5,6-pentahydroxyhexyl]butanamide], the EC50 is less than 100 nM.

With `CC(=O)N(CCCCCSc1ccc(Cl)c(CNC2(c3cnccc3-c3ccccc3OC3CC3)CC2)c1)C[C@H](O)[C@@H](O)[C@H](O)[C@H](O)CO` [Compound I-499, N-[5-({4-chloro-3-[({1-[4-(2-cyclopropoxyphenyl)pyridin-3-yl]cyclopropyl}amino)methyl]phenyl}sulfanyl)pentyl]-N-[(2S,3R,4R,5R)-2,3,4,5,6-pentahydroxyhexyl]acetamide], the EC50 was less than 100 nM.

`CC(=O)N(CCCSc1ccc(Cl)c(COC2(c3cnccc3-c3ccccc3OC3CC3)CC2)c1)C[C@H](O)[C@@H](O)[C@H](O)[C@H](O)CO` [Compound I-500, N-(3-{[4-chloro-3-({1-[4-(2-cyclopropoxyphenyl)pyridin-3-yl]cyclopropoxy}methyl)phenyl]sulfanyl}propyl)-N-[(2S,3R,4R,5R)-2,3,4,5,6-pentahydroxyhexyl]acetamide]: the EC50 was less than 100 nM.

In the case of `CC(=O)N(CCCCSc1ccc(Cl)c(COC2(c3cnccc3-c3ccccc3OC3CC3)CC2)c1)C[C@H](O)[C@@H](O)[C@H](O)[C@H](O)CO` [Compound I-501, N-(4-{[4-chloro-3-({1-[4-(2-cyclopropoxyphenyl)pyridin-3-yl]cyclopropoxy}methyl)phenyl]sulfanyl}butyl)-N-[(2S,3R,4R,5R)-2,3,4,5,6-pentahydroxyhexyl]acetamide], the EC50 is less than 100 nM.

As for `CC(=O)N(CCCSc1ccc(Cl)c(CNC2(c3cnccc3-c3ccccc3OC3CC3)CC2)c1)C[C@H](O)[C@@H](O)[C@H](O)[C@H](O)CO` [Compound I-502, N-[3-({4-chloro-3-[({1-[4-(2-cyclopropoxyphenyl)pyridin-3-yl]cyclopropyl}amino)methyl]phenyl}sulfanyl)propyl]-N-[(2S,3R,4R,5R)-2,3,4,5,6-pentahydroxyhexyl]acetamide], the EC50 was less than 100 nM.

As to `CC(=O)N(CCCCSc1ccc(Cl)c(CNC2(c3cnccc3-c3ccccc3OC3CC3)CC2)c1)C[C@H](O)[C@@H](O)[C@H](O)[C@H](O)CO` [Compound I-503, N-[4-({4-chloro-3-[({1-[4-(2-cyclopropoxyphenyl)pyridin-3-yl]cyclopropyl}amino)methyl]phenyl}sulfanyl)butyl]-N-[(2S,3R,4R,5R)-2,3,4,5,6-pentahydroxyhexyl]acetamide], the EC50 was less than 100 nM.

`CC(=O)N(CCSc1ccc(Cl)c(CNC2(c3cnccc3-c3ccccc3OC3CC3)CC2)c1)C[C@H](O)[C@@H](O)[C@H](O)[C@H](O)CO` [Compound I-504, N-[2-({4-chloro-3-[({1-[4-(2-cyclopropoxyphenyl)pyridin-3-yl]cyclopropyl}amino)methyl]phenyl}sulfanyl)ethyl]-N-[(2S,3R,4R,5R)-2,3,4,5,6-pentahydroxyhexyl]acetamide]: the EC50 was 126 to 1000 nM.

Consider `CC(=O)N(CCSc1ccc(Cl)c(COC2(c3cnccc3-c3ccccc3OC3CC3)CC2)c1)C[C@H](O)[C@@H](O)[C@H](O)[C@H](O)CO` [Compound I-505, N-(2-{[4-chloro-3-({1-[4-(2-cyclopropoxyphenyl)pyridin-3-yl]cyclopropoxy}methyl)phenyl]sulfanyl}ethyl)-N-[(2S,3R,4R,5R)-2,3,4,5,6-pentahydroxyhexyl]acetamide], for which the EC50 is less than 100 nM.

Turning to `CN(CCCCSc1ccc(Cl)c(CNC2(c3cnccc3-c3ccccc3OC3CC3)CC2)c1)C(=O)[C@@H](O)[C@@H](O)[C@H](O)[C@@H](O)CO` [Compound I-506, (2S,3S,4R,5S)-N-[4-({4-chloro-3-[({1-[4-(2-cyclopropoxyphenyl)pyridin-3-yl]cyclopropyl}amino)methyl]phenyl}sulfanyl)butyl]-2,3,4,5,6-pentahydroxy-N-methylhexanamide], the EC50 was less than 100 nM.

As for `CN(CCCCCSc1ccc(Cl)c(CNC2(c3cnccc3-c3ccccc3OC3CC3)CC2)c1)C(=O)[C@@H](O)[C@@H](O)[C@H](O)[C@@H](O)CO` [Compound I-507, (2S,3S,4R,5S)-N-[5-({4-chloro-3-[({11-[4-(2-cyclopropoxyphenyl)pyridin-3-yl]cyclopropyl}amino)methyl]phenyl}sulfanyl)pentyl]-2,3,4,5,6-pentahydroxy-N-methylhexanamide], the EC50 was less than 100 nM.

`CN(CCCSc1ccc(Cl)c(COC2(c3cnccc3-c3ccccc3OC3CC3)CC2)c1)C(=O)[C@@H](O)[C@@H](O)[C@H](O)[C@@H](O)CO` [Compound I-508, (2S,3S,4R,5S)-N-(3-{[4-chloro-3-({1-[4-(2-cyclopropoxyphenyl)pyridin-3-yl]cyclopropoxy}methyl)phenyl]sulfanyl}propyl)-2,3,4,5,6-pentahydroxy-N-methylhexanamide]: the EC50 was less than 100 nM.

The values are drawn from patent US12084472B2 (Ardelyx, Inc., priority 2015, dated 2024).
